A short description of the data set: Water solubility. It counts as physicochemical.

In the case of `NC(=O)c1ccc(C(=O)NOCc2ccc(Sc3ccc(N)cc3)c(C(F)(F)F)c2)cc1` [compound 11p], the water solubility entry is “superior water solubility”.
